In patent US8604053B2, “TRPV1 antagonists” (AbbVie Inc., priority 2008, dated 2013):

Columns and labels:
[1] = Rat telemetry protocol, core body temperature; format: in vivo; settings: core body temperature of rats one hour post dosing, 100 μmol/kg p.o., relative to vehicle
Outline: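 Male Sprague Dawley rats (225–250 g) with intraperitoneal telemetry transmitters, 2-week recovery. Single oral 100 μmol/kg dose in 10% EtOH/20% Tween-80/70% PEG-400; core body temperature recorded every 15 min over 24 h.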

[2] = molecular target: T1, human TRPV1 receptor (hTRPV1) (Homo sapiens, UniProt Q8NER1); assay: Capsaicin activation assay (Ca2+ influx, FLIPR); format: cell-based; settings: hTRPV1 in 1321N1 cells, 0.05 μM capsaicin
T1 construct: expressed in transfected cells
T1 sequence (Q8NER1 whole entry): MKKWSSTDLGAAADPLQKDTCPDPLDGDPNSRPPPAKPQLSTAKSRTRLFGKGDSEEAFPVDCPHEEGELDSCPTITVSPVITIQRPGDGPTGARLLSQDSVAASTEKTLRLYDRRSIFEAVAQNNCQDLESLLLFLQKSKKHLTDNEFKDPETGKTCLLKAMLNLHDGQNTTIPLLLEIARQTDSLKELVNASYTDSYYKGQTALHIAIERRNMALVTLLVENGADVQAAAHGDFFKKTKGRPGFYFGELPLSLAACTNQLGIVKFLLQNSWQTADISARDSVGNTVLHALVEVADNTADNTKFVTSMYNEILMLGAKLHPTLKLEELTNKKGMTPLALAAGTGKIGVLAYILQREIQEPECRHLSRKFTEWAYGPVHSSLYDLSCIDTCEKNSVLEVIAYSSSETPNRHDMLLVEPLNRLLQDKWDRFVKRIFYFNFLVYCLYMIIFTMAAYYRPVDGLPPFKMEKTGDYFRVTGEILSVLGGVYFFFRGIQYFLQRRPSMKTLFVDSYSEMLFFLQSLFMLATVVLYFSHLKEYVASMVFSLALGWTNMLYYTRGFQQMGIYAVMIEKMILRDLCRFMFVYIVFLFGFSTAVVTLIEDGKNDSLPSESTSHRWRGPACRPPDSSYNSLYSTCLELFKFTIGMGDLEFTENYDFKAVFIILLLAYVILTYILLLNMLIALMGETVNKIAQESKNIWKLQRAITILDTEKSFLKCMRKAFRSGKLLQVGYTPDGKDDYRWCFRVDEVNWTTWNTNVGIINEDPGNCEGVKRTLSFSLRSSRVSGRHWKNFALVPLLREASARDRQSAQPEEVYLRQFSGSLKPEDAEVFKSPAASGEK
Outline: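 1321N1 astrocytoma cells stably expressing recombinant hTRPV1, loaded with Fluo-4 AM (2 μM, 1-2 h, 23 °C); compounds added 3 min before capsaicin (0.05 μM final), 11-point half-log range. Peak FLIPR fluorescence over baseline as % of capsaicin control; IC50 from four-parameter Hill fit.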

[3] = Assessment of hemodynamic profile in anesthetized rat; format: in vivo; settings: i.v. infusion 3, 10 and 30 mg/kg/30 minutes/dose, relative to vehicle control group
Protocol: Male Sprague-Dawley rats were anesthetized with Inactin, instrumented, and allowed to stabilize. Following a 30 minute baseline period, test compound was infused via intravenous administration at 3, 10, and 30 mg/kg/30 minutes/dose in a low volume PEG-400 vehicle (1 mL/kg) or 20:40:40 dimethylacetamide:propylene glycol:PEG-400 vehicle (1 mL/kg). A separate group of animals received infusion of vehicle alone. Mean arterial pressure (MAP) and heart rate (HR) were observed and recorded.

Compound | Δ Temp (° C.) [1] | IC50 [2] | Change in MAP or HR ≧ 15% ? [3]
Cc1cc2c(NC(=O)N[C@@H]3CC(C)(C)Oc4cc(C(F)(F)F)ccc43)cccc2cn1 [Example 118, N-[(4R)-2,2-dimethyl-7-(trifluoromethyl)-3,4-dihydro-2H-chromen-4-yl]-N′-(3-methylisoquinolin-5-yl)urea] | 0.0 °C | 19 nM | Yes (An observed increase or decrease of greater than 15% in MAP (mean arterial pressure) or HR (heart rate) in one or more of the animals in the test group relative to the vehicle control group is indicated as “Yes” in the table)
Cc1cc2c(NC(=O)N[C@@H]3CC(C)(C)Oc4c(F)cccc43)cccc2cn1 [Example 119, N-[(4R)-8-fluoro-2,2-dimethyl-3,4-dihydro-2H-chromen-4-yl]-N′-(3-methylisoquinolin-5-yl)urea] | 0.0 °C | 28 nM | Yes (An observed increase or decrease of greater than 15% in MAP (mean arterial pressure) or HR (heart rate) in one or more of the animals in the test group relative to the vehicle control group is indicated as “Yes” in the table)
Cc1cc2c(NC(=O)N[C@@H]3CC(CF)(CF)Oc4c(F)cc(F)cc43)cccc2cn1 [Example 120, N-[(4R)-6,8-difluoro-2,2-bis(fluoromethyl)-3,4-dihydro-2H-chromen-4-yl]-N′-(3-methylisoquinolin-5-yl)urea] | −0.5 °C | 43 nM | No (an observed increase or decrease of less than or equal to 15% in MAP (mean arterial pressure) or HR (heart rate) in the test group of animals relative to the vehicle control group is indicated as “No” in the table)
Cc1cc2c(NC(=O)N[C@@H]3CC(C)(C)Oc4cc(F)ccc43)c(F)ccc2cn1 [Example 123, N-[(4R)-7-fluoro-2,2-dimethyl-3,4-dihydro-2H-chromen-4-yl]-N′-(6-fluoro-3-methylisoquinolin-5-yl)urea] | 0.0 °C | 27 nM | No (an observed increase or decrease of less than or equal to 15% in MAP (mean arterial pressure) or HR (heart rate) in the test group of animals relative to the vehicle control group is indicated as “No” in the table)
N-[(4R)-2,2-diethyl-6-fluoro-3,4-dihydro-2H-chromen-4-yl]-N-(3-methylisoquinolin-5-yl)urea [Example 56] | 0.2 °C | 15 nM | No (an observed increase or decrease of less than or equal to 15% in MAP (mean arterial pressure) or HR (heart rate) in the test group of animals relative to the vehicle control group is indicated as “No” in the table)
N-[(4R)-2,2-diethyl-8-fluoro-3,4-dihydro-2H-chromen-4-yl]-N-(3-methylisoquinolin-5-yl)urea [Example 62] | −0.5 °C | 4 nM | No (an observed increase or decrease of less than or equal to 15% in MAP (mean arterial pressure) or HR (heart rate) in the test group of animals relative to the vehicle control group is indicated as “No” in the table)
N-[(4R)-6,8-difluoro-2,2-dimethyl-3,4-dihydro-2H-chromen-4-yl]-N-(3-methylisoquinolin-5-yl)urea [Example 98] | 0.0 °C | 17 nM | Yes (An observed increase or decrease of greater than 15% in MAP (mean arterial pressure) or HR (heart rate) in one or more of the animals in the test group relative to the vehicle control group is indicated as “Yes” in the table)
